Assay [1] has as its system aerobic, culturable bacterial community from the R. flavipes digestive tract. The assay is described as follows: Imidacloprid-loaded discs on plated gut homogenates. In kind it is cell-based. The note with it: concentrations of 1-1000-fold higher than used in the feeding assays. The method, then:
(§1) After incubation at 26° C. for 24 hours, plates were examined—spots producing 3-10 CFUs were used to estimate the total number of aerobic culturable bacteria per termite. In addition, dilutions of gut homogenates were directly plated onto nutrient agar; discs loaded with serial dilutions of imidacloprid were added to these plates to examine its direct impact on the culturable bacteria.

Assay [2] has as its system gut bacteria (16S rDNA abundance). The assay is described as follows: 16S qPCR of relative bacterial DNA abundance in guts. As to conditions: 48 hours exposure; two colonies. In kind it is in vivo, R. flavipes. The protocol:
as §1
DNA was isolated from termite whole guts following control or imidacloprid treatments in bioassays using the Epicentre Yeast DNA extraction kit, including RNase treatment (Madison, Wis.). Following isolation, DNA samples were subjected to phenol-chloroform cleanup and concentrated using sodium acetate-ethanol precipitation. qPCR reactions were performed in triplicate with SensiFast SYBR No ROX kit (Bioline; Taunton, Mass.), 50 ng of sample DNA, nuclease-free water, and degenerate 16S rDNA primers. Primers amplified a 291 bp fragment containing the V4 hypervariable region of the 16S rRNA gene. Host DNA was quantified using primers specific to an apparent single-copy host gene, Actin 5C-1. Data were normalized to Actin 5C-1 to determine the relative abundance of 16S amplicons in the control and imidacloprid-treated DNA preparations.
Background: Real-time PCR tracks product formation cycle by cycle.

Assay [3] deals with hindgut protist symbiont populations. The assay is described as follows: Protist counts after imidacloprid treatment. The class given is in vivo, R. flavipes. The note with it: 48 hr imidacloprid exposure. The method, then:
To determine if imidacloprid indirectly or directly impacted protist and bacteria gut symbiont populations, post-hoc tests were performed using multiple independent termite colonies. Protist counts were made using five laboratory colonies as previously described. Bacterial CFU counts were done via aerobic culturing using two laboratory colonies; one that had been in the lab for >2 years (“colony 1”) and one collected from the field 1 month earlier (“colony 2”). […] Whole guts dissected from individual termites were sonicated in 250 μL of PBS, serially diluted, and spotted (2 μL) onto nutrient agar plates.

Assay [4] deals with Reticulitermes flavipes. Kind of assay: Termite behavior and pathology observed in the bioassays (grooming, tunneling, light repellency). The class given is in vivo. The note with it: sublethal concentration.
Assay [5] relates to host gut and protist/symbiont genes. The class given is in vivo. The protocol: After two days, a subset of ten termites was removed from each of the replicate colony treatments (20 total samples), cold-immobilized, surface-sterilized by a serial rinse in 0.3% sodium hypochlorite (1×) and sterilized water (2×), and dissected on Parafilm to collect digestive tracts, including salivary glands. Digestive tracts were transferred into RLA Lysis Buffer (Promega, Fitchburg, Wis., USA) and stored at −70° C. until RNA isolation. RNA extraction and cDNA synthesis was performed.
Experiments were designed after MIAME guidelines. A type II microarray design was used with a common-reference strategy. The common reference consisted of a normalized blend of all RNA samples included in the experiment. This common reference was co-hybridized against each replicate sample on single microarrays. Dye swaps were performed between replicate samples and references to check for potential dye impacts on spot intensity. […] Specifically, such microarrays contained a mix of ˜14,500 cDNA oligonucleotides representing 10,500 host gut and protist/symbiont genes, including stereotypical immune response genes, thereby providing simultaneous assessments of host and protist gene expression. Reported analyses consisted of five pairwise comparisons to a common control as denoted by the numbers 1-5 in FIG. 4. More specific microarray data are provided in S15-S20 Tables of Sen et al. 2015, PLoS ONE 10(4): e0123391 (the “Sen Article”), which is hereby incorporated by reference herein in its entirety. […] Genbank accession numbers for sequences at each microarray position are provided in S21-S23 Tables of the Sen Article.
Before comparative analysis, the individual signal intensity values obtained from the microarray probes were log-transformed (using 2 as the base) and normalized among all individual samples included in the study. […] After the data were normalized, t-tests were used to make probe-by-probe comparisons among treatments. In each comparison, a p-value and fold change were computed for all microarray loci. In addition to p-values, q-values were computed. While the p-value measures the minimum statistical false-positive rate incurred when setting a threshold for test significance, the q-value measures the minimum false-discovery rate incurred when calling that test significant.
The generated contigs and the remaining orphan sequences were used for further analyses using the program BLAST2GO for identification and annotation. By using the inbuilt BLASTx algorithm, these sequences were used as queries in BLASTx searches against the Genbank non-redundant (nr) database with an e-value cut-off of ≤1e-03. The putative identification, annotation, and Gene Ontology (GO) terms for the sequences also were obtained through BLAST2GO. KEGG analyses were also performed.

In assay [6] the test system is amidohydrolase 2 gene. Kind of assay: qPCR of amidohydrolase 2 expression after kanamycin treatment and B. bassiana challenge. As to conditions: 5% kanamycin 48 h, then B. bassiana; compared to water treated controls. In kind it is in vivo, R. flavipes. An excerpt:
To investigate whether symbiont removal reduced amidohydrolase expression, groups of 10 workers from three independent colonies were subjected to a treatment of 5% kanamycin (controls received water only) for 48-hours and subsequently challenged with a low dose of B. bassiana conidia (as above). 5% Kanamycin was used for bacterial symbiont removal based on extensive preliminary research. These bioassays were held for 48-hours before termite guts were dissected for RNA extraction. cDNA was synthesized using the Bioline SensiFast cDNA Synthesis kit using 1 μg total RNA as template. qPCR was performed using the SensiFast no ROX SYBR Master Mix (Bioline) and amidohydrolase 2 gene specific primers as well as Actin 5C as a reference gene (see Table S.2 of the Peterson & Scharf Article).

Assay [7] concerns termite workers challenged with B. bassiana. Kind of assay: Post-hoc bioassay of termite susceptibility to B. bassiana after kanamycin. The class given is in vivo, R. flavipes. The protocol: Similarly, post-hoc bioassays were performed to determine if 5% kanamycin treatment was sufficient to increase termite susceptibility to B. bassiana. As above, groups of 10 termites were treated with 5% kanamycin or water (controls) for 48-hours, and then inoculated with a low dose of B. bassiana conidia suspended in 0.5% Tween-20 or a blank of 0.5% Tween-20 solution (controls). All together, these four groups allowed the investigators to account for any baseline mortality caused by antibiotic treatment. These bioassays were held for 7 days before scoring survivorship.

Where [8] appears, read: gut, 2 days post-exposure, vs solvent control.
[9] abbreviates: passing array positions, before contig formation.

The structures appear in SMILES notation.

As for `O=[N+]([O-])NC1=NCCN1Cc1ccc(Cl)nc1` [I, imidacloprid], in assay [1], the “Growth suppression of culturable gut bacteria by imidacloprid-impregnated paper discs” value was “failed to suppress the growth”. Moreover, the “Effect on total bacterial DNA abundance (16S PCR signals)” value in assay [2] was “did not detect any impact”. Further, in assay [3], the “Reduction of representative protist groups” value was 25-50% and the “Treated termite colonies with reduced protist populations” value is listed as 5 of 6. For the same compound, the “Termite behaviors (tunneling, grooming, light repellency)” value in assay [4] is reported as “neither produced tunnels nor were repelled by light”. Further, in assay [5] (gut, 2 days), the “Effect on expression of innate immune / antimicrobial genes” value is “failed to substantially alter”. Also, in assay [5] (setting [8]), the “Differentially expressed contigs and singletons, Overall” value was determined as 393; the “Downregulated contigs and singletons, Host” value is on record as 8; the “Downregulated contigs and singletons, Mixed” value stood at 3; the “Downregulated contigs and singletons, Symbiont” value turned out to be 205. In addition, in assay [5] (setting [8]), the “Downregulated contigs and singletons, Totals” value is 216; the “Upregulated contigs and singletons, Mixed” value is 1; the “Upregulated contigs and singletons, Symbiont” value came out at 19; the “Upregulated contigs and singletons, Totals” value is on record as 177. In assay [5] (setting [9]), the Downregulated array positions was found to be 504 and the “Upregulated transcripts in the array (array positions)” value amounted to 260.

On to `NC[C@H]1O[C@H](O[C@H]2[C@H](O)[C@@H](O[C@H]3O[C@H](CO)[C@@H](O)[C@H](N)[C@H]3O)[C@H](N)C[C@@H]2N)[C@H](O)[C@@H](O)[C@@H]1O` [kanamycin], for which the “Reduction of amidohydrolase 2 gene expression in pathogen challenged termites” value in assay [6] is approximately 5 ×. Further, in assay [7] (5% kanamycin 48 h, normalized mortality at 7 days post inoculation), the “Increase in termite susceptibility to B. bassiana” value is given as 3 ×. The “Increase in termite worker susceptibility to B. bassiana” value in assay [7] (5% kanamycin, 7 days) was 3 fold.

The values are drawn from patent US11364285B2, “Methods, compositions, and molecular targets that exploit synergies and symbioses in the termite gut” (priority 2016, dated 2022).
